PubChem BioAssay (NCI)
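Method: 48-hour compound exposure of cells in 96-well plates, five concentrations, linear interpolation of endpoints. Abbreviation: GI50, concentration required for 50% inhibition of growth. At the TGI there is no net growth.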

How the values were obtained:
Assay in all cases: inhibition of tumour cell growth, NCI panel, 48 h
ACHN renal = system: ACHN renal
HT29 colon = system: HT29 colon
MALME-3M melanoma = system: MALME-3M melanoma
MDA-MB-435 = system: MDA-MB-435
MOLT-4 leukemia = system: MOLT-4 leukemia
NCI-H23 lung = system: NCI-H23 lung
OVCAR-4 ovarian = system: OVCAR-4 ovarian
SF-268 CNS = system: SF-268 CNS
SW-620 colon = system: SW-620 colon
TK-10 renal = system: TK-10 renal

| Structure (SMILES) | GI50 (ACHN renal) [µM] | TGI (ACHN renal) [µM] | GI50 (HT29 colon) [µM] | TGI (HT29 colon) [µM] | GI50 (MALME-3M melanoma) [µM] | TGI (MALME-3M melanoma) [µM] | GI50 (MDA-MB-435) [µM] | TGI (MDA-MB-435) [µM] | GI50 (MOLT-4 leukemia) [µM] | TGI (MOLT-4 leukemia) [µM] | GI50 (NCI-H23 lung) [µM] | TGI (NCI-H23 lung) [µM] | GI50 (OVCAR-4 ovarian) [µM] | TGI (OVCAR-4 ovarian) [µM] | GI50 (SF-268 CNS) [µM] | TGI (SF-268 CNS) [µM] | GI50 (SW-620 colon) [µM] | TGI (SW-620 colon) [µM] | GI50 (TK-10 renal) [µM] | TGI (TK-10 renal) [µM] |
| --- | --- | --- | --- | --- | --- | --- | --- | --- | --- | --- | --- | --- | --- | --- | --- | --- | --- | --- | --- | --- |
| CN(C)CCOc1ccc(-c2cc(-c3ccc4c(c3)CC/C4=N\O)c(-c3ccncc3)o2)cc1 | 3.62 | 6.98 | 0.451 | 4.39 | 0.0245 | 0.179 | 0.156 | 4.39 | 3.86 | 10.3 | 3.21 | 7.12 | 5.16 | 11.2 | 4.72 | 9.94 | 1.92 | 5.45 | 5.62 | 9.79 |
| CC(=O)c1ccc2c(c1)N(CCCN(C)C)c1ccccc1S2 | 15.5 | 30.6 | 11.2 | 28.4 | 17.9 | 38.3 | 11.8 | 25.7 | 16.8 | 41.2 | 17.1 | 44.4 | 18.5 | 65.2 | 13.5 | 29.6 | 16.5 | 31.8 | 14.7 | 29.5 |
| COc1ccc(Oc2cc(NCCC(F)(F)F)c3ncc(-c4ccc(C(=O)NC5CC5)c(C)c4)n3n2)c(F)c1F | 0.304 | 30.2 | 0.506 | > 100 | 2.08 | 54.8 | 2.64 | > 100 | 2.03 | > 100 | 4.16 | > 100 | 3.85 | > 87.2 | 4.98 | > 100 | 0.125 | > 100 | 4.61 | > 100 |
| Nc1ncnc2nn(C3OC(CO)C(O)C3O)nc12 (configuration not stated) |  | 49.3 |  | > 100 |  | > 100 |  | > 90 |  | > 66.2 |  | 67.9 |  | > 100 |  | > 100 |  | > 100 |  | > 35.4 |
| O=c1cc(O)c2c(O)cc(O)cc2o1 |  | > 100 |  | > 100 |  | > 100 |  | > 100 |  | > 100 |  | > 100 |  | > 100 |  | > 100 |  | > 100 |  | > 100 |
| Nc1nc(-c2cc(-c3cccc4ccccc34)nc(N)n2)cc(-c2cccc3ccccc23)n1 |  | > 100 |  | > 100 |  | > 100 |  | > 100 |  | > 100 |  | > 100 |  | > 100 |  | > 100 |  | > 100 |  | > 100 |
| Cc1cc(O)cc(C)c1/C=C/c1cncc(C(=O)OC(C)(C)C)c1 | 12.7 | > 25 | > 16.8 | > 25 | > 16.6 | > 25 | 11.6 | > 25 | 15 | > 25 | > 20 | > 25 | 12.2 | > 25 | 20.7 | > 25 | 20.2 | > 25 | > 23.5 | > 25 |
| CNCCCn1c2c(c3ccc(F)cc3c1=O)C(=O)c1cc(OC)cnc1-2 | 0.117 | 0.362 | 0.145 | 0.624 | 0.318 | 1.55 | 0.471 | 1.81 | 0.0379 | 0.318 | 0.312 | 1.97 | 0.421 | 10.5 | 0.379 | 3.55 | 0.184 | 2.03 | 0.332 | 1.79 |
| Cn1c2ccccc2c2nnc(NNCc3ccccn3)nc21 | 0.305 | 2.37 | 0.526 | 22.9 | 0.4 | 4.37 | 0.555 | 14.5 | 0.38 | 12.6 | 0.421 | 6.15 | 0.451 | 13.9 | 0.294 | 6.5 | 0.613 | 16.5 | 0.614 | 14.3 |
| C[C@]12CC[C@@H]3c4ccc(O)cc4CC[C@H]3[C@@H]1CC[C@@H]2NS(=O)(=O)c1ccc2ccccc2c1 | 2.95 | 10.5 | 2.47 | 6.11 | 2.56 | 8.06 | 2.31 | 5.89 | 3.37 | > 100 | 3.34 | 14.8 | 1.98 | 9.36 | 3.68 | 18.4 | 3.4 | 15.7 | 3.52 | 12.8 |
| COc1ccc(C(=O)OC2C(OC3C(O)COC(O[C@H]4C[C@H]5[C@@H]6CC=C7C[C@@H](O)CC[C@]7(C)[C@H]6CC[C@]5(C)[C@H]4[C@H](C)C(=O)CCC(C)C)C3OC(C)=O)OCC(O)C2O)cc1 (some centres not stated) | 0.00747 | 9.22 | < 0.003 | 5.91 | < 0.003 | 0.129 | < 0.003 | 0.0435 | < 0.003 | < 0.003 | 0.0144 | 3.37 | 0.00892 | 19.6 | < 0.003 | 1.46 | < 0.003 | 0.304 | 0.0148 | 6.6 |
| CNC(=O)c1cc2c(Oc3ccc(NC(=S)NC(=O)Cc4ccccc4)cc3F)ccnc2cc1OC | 3.5 | > 100 | 3.16 | > 100 | 8.85 | > 100 | > 27.6 | > 100 | 3.47 | > 100 | 3.13 | > 100 | 5.44 | > 100 | 4.51 | > 100 | > 100 | > 100 | 5.99 | > 100 |
| CC(C)(C)OC(=O)NCCCCCCCCCCn1c2c(c3ccccc3c1=O)C(=O)c1ccccc1-2 | 18.5 | 66 | > 100 | > 100 | > 100 | > 100 | > 100 | > 100 | 16.2 | 31.2 | 34.2 | > 100 | > 100 | > 100 | 21.9 | > 100 | > 100 | > 100 | 20.3 | 52.1 |
| COC(=O)[C@@H](OC)[C@@H]1Cc2cc3cc(OC4CC(OC5CC(O)C(O)C(C)O5)C(O)C(C)O4)c(C)c(O)c3c(O)c2C(=O)[C@H]1OC1CC(OC2CC(OC3CC(C)(O)C(O)C(C)O3)C(O)C(C)O2)C(O)C(C)O1 (some centres not stated) | 0.0313 | > 16.5 | 0.039 |  | 0.034 | 0.0839 | 0.0274 | 0.0605 | 0.0453 |  | 0.0345 |  | 0.0413 | 0.553 | 0.0455 | > 7.49 | 0.04 | > 16.5 | 0.0438 | > 16.5 |
| Nc1cc2nc3ccccc3oc-2cc1=O | 12.4 | > 79 | 2.58 | > 21.7 | 1.67 | 3.63 | 0.516 | 1.77 | 10.1 | > 63.2 | 0.811 | 3.56 | 23.4 | > 100 | 4.85 | > 57.2 | 1.91 | 5.08 | 14.3 | 39.7 |
| Cn1c(C(C)(C)OC(=O)Oc2ccccc2)cnc1[N+](=O)[O-] |  | > 100 |  | > 100 |  | > 100 |  | > 100 |  | 45.8 |  | > 100 |  | > 100 |  | > 100 |  | > 100 |  | > 100 |
| CCN1C(=O)N(CC)C2C1NN=c1s/c(=C\c3cccc([N+](=O)[O-])c3)c(=O)n12 (configuration not stated) | 0.0662 | > 100 | 0.0387 | > 100 | 0.0812 | > 100 | 0.0214 | 0.0504 | 0.24 | > 100 | 0.413 | > 100 | 0.567 | > 100 | 0.293 | > 100 | 0.0468 | > 100 | > 100 | > 100 |
| CCN(CC)c1ccc(/C=C/C=C(/C#N)C(N)=S)cc1 | 24 | > 100 | 2.84 | 23.9 | 32 | > 100 | 5.01 | > 100 | 2.19 | 12 | 8.45 | > 100 | 6.27 | > 100 | 30.2 | > 100 | 15.4 | > 100 | 28.7 | > 100 |
| C#C/C=C/CC1OC(C(Br)CC)CC(Br)C2CC1O2 (configuration not stated) |  | > 100 |  | > 100 |  | 25.7 |  | > 100 |  | > 100 |  | > 100 |  | > 100 |  | > 100 |  | > 100 |  | > 100 |
| N#C/C(=C\c1cccc2cnccc12)N1N=NC2C=CC=CC21 (configuration not stated) | 2.5 | > 100 | 3.5 | > 100 | 3.24 | > 100 | 2.87 | > 100 | 3.21 | > 100 | 3.27 | > 100 | 2.92 | > 100 | 3.06 | > 100 | 3.35 | > 100 | 3.98 | 26.3 |
